{
  "source": "patent US20120302614A1",
  "about": "“METHOD FOR IMPROVING CEREBRAL CIRCULATION OR TREATING A CEREBRAL BLOOD FLOW DISORDER” (OSAKA UNIVERSITY, priority 2007, published 2012)",
  "system": "Aβ injection model (Aβ 1-40 administered intracerebroventricularly)",
  "assay": "Morris water maze tests in Aβ injection model, Test Example 2",
  "format": "in vivo, ddY mouse",
  "conditions": "olmesartan medoxomil 1 mg/kg/day, hydralazine 30 mg/kg/day",
  "protocol": "The therapeutic effect of olmesartan medoxomil in Aβ injection model and the dose dependency thereof were examined according to the following experimental schedule. [Experimental Schedule]: Prior to the experiment, 8-week old male ddY mice were administered olmesartan medoxomil (0.5 mg/kg/day, 1 mg/kg/day, 3 mg/kg/day or 6 mg/kg/day) or distilled water orally for four weeks (day −28 to −1). Then, Aβ 1-40 was administered to the mice intracerebroventricularly (day 0). (Although Aβ 1-40 was administered into one of the lateral ventricles in WO 2006/059777, Aβ 1-40 was administered in Test Example 1 to both lateral ventricles with an interval of one day between two administrations. Except for this point, Aβ 1-40 administration was performed in the same manner as in WO 2006/059777.) From one week thereafter, a behavioral test to evaluate cognitive function (Morris water maze test; Morris R et al., J Neuroscience Methods 1984, 11, 47-60) was performed (day 7 to 12). As a negative control, mice which had received oral administration of distilled water for four weeks were administered Aβ 40-1 intracerebroventricularly. The administration of olmesartan medoxomil or distilled water was continued until the end of the behavioral test. Measurements were performed as described below. • Hidden platform test: A platform is placed below the water surface of a water pool 150 cm in diameter filled with white water-colored. Mice are released into the water, and the time it takes them to reach the platform is measured. This trial is performed three times a day and for five consecutive days. As they learn, mice become able to reach the platform more quickly day by day. • Visible platform test: Mice are released into the water under such conditions that they can see the platform. The time it takes them to reach the platform is measured. • Probe test: The platform is removed, and mice are released and allowed to swim freely. Those mice with good learning/memory swim in the quadrant where the platform was located searching for the platform. The time they spent in that quadrant is measured. • Annnulus crossing: The number of times mice crossed the platform in the probe test is counted. […] The dose of olmesartan medoxomil was set at a low level of 1 mg/kg/day in view of the experimental results of Test Example 1. […] As behavioral tests to assess cognitive function, Morris water maze tests were performed as in Test Example 1 (hidden platform test, visible platform test and probe test) and, in addition, an open field test was also performed. Further, long-term retention, working memory task and swimming speed were also examined in the Morris water maze tests. Measurements were performed as described below. • Open field test: A cubic box (30×30×30 cm) is used. On each X and Y bank of the open-field area, two infrared beams are attached 2 cm above the floor at a 10 cm interval. The number of successive interceptions by the subject of the two adjoining beams on each bank is counted as locomotion score. • Long-term retention: On day 12 after the completion of the hidden platform test as a water maze test, mice are released into the water and the time it takes them to reach the platform is measured. • Working memory task: The platform is transferred and fixed at a new place. Mice are given four consecutive trials at intervals of as short as 20 seconds, and the time it takes them to reach the platform is measured. […] In order to eliminate this influence, swimming speed is measured.",
  "data": [
    {"smiles": "CCCc1nc(C(C)(C)O)c(C(=O)OCc2oc(=O)oc2C)n1Cc1ccc(-c2ccccc2-c2nnn[nH]2)cc1", "note": "[olmesartan medoxomil, (5-methyl-2-oxo-1,3-dioxolen-4-yl)methyl 4-(1-hydroxy-1-methylethyl)-2-propyl-1-[4-[2-(tetrazol-5-yl)phenyl]phenyl]methyl-imidazole-5-carboxylate]", "values": [
      {"measurement": "annulus crossings: number of platform crossings compared to Aβ 1-40 administration group", "setting": "Aβ 1-40 + drug", "result": "increased"},
      {"measurement": "hidden platform test: time to reach the platform", "setting": "Aβ 1-40 + drug", "result": "shortened through successive sessions"},
      {"measurement": "long-term retention: time to reach the platform compared to Aβ 1-40 administration group", "setting": "day 17", "result": "shortened"},
      {"measurement": "spatial memory impairment and learning disability evoked by Aβ 1-40 (Morris water test, summary)", "result": "significantly improved"},
      {"measurement": "working memory task: time to reach the platform compared to Aβ 1-40 administration group", "result": "shortened"}
    ]}
  ]
}
